Literature values as cited in patent publication US20250231185A1, “Coronavirus T Cell Epitopes, Megapools and Uses Thereof” (La Jolla Institute for Immunology, priority 2021, published 2025).

Tested on: CD8+ T cells
Details: CD8R (D) megapool epitopes; dominant = recognized by 3 or more donors/different studies; cited from earlier work

Substance | Dominant
1811 (QLRARSVSPK) [compound 1811] | Yes (more dominant epitopes are defined by being recognized by 3 or more donors/different studies)
1730 (LVLSVNPYV) [compound 1730] | Yes (more dominant epitopes are defined by being recognized by 3 or more donors/different studies)
1738 (VYIGDPAQL) [compound 1738] | Yes (more dominant epitopes are defined by being recognized by 3 or more donors/different studies)
1775 (SLRPDTRYVL) [compound 1775] | Yes (more dominant epitopes are defined by being recognized by 3 or more donors/different studies)
1790 (SEFSSLPSY) [compound 1790] | Yes (more dominant epitopes are defined by being recognized by 3 or more donors/different studies)
1729 (VLQAVGACV) [compound 1729] | Yes (more dominant epitopes are defined by being recognized by 3 or more donors/different studies)
1676 (SELVIGAVIL) [compound 1676] | Yes (more dominant epitopes are defined by being recognized by 3 or more donors/different studies)
1774 (FSAVGNICY) [compound 1774] | Yes (more dominant epitopes are defined by being recognized by 3 or more donors/different studies)
1776 (FLLNKEMYL) [compound 1776] | Yes (more dominant epitopes are defined by being recognized by 3 or more donors/different studies)
1772 (STFNVPMEK) [compound 1772] | Yes (more dominant epitopes are defined by being recognized by 3 or more donors/different studies)
1752 (LLLDDFVEII) [compound 1752] | Yes (more dominant epitopes are defined by being recognized by 3 or more donors/different studies)
1722 (RLYYDSMSY) [compound 1722] | Yes (more dominant epitopes are defined by being recognized by 3 or more donors/different studies)
1786 (MPASWVMRI) [compound 1786] | Yes (more dominant epitopes are defined by being recognized by 3 or more donors/different studies)
1705 (MEVTPSGTWL) [compound 1705] | Yes (more dominant epitopes are defined by being recognized by 3 or more donors/different studies)

Same assay, conditions: CD8RE megapool peptides (non-spike SARS-CoV-2 antigens); dominant epitope Yes/No; cited from earlier work

Substance | Dominant
2951 (LLMPILTLT) [compound 2951] | Yes (more dominant epitopes are defined by being recognized by 3 or more donors/different studies)
2911 (SELVIGAVIL) [compound 2911] | Yes (more dominant epitopes are defined by being recognized by 3 or more donors/different studies)
3019 (SAFAMMFVK) [compound 3019] | Yes (more dominant epitopes are defined by being recognized by 3 or more donors/different studies)
2964 (VLQAVGACV) [compound 2964] | Yes (more dominant epitopes are defined by being recognized by 3 or more donors/different studies)
2971 (KLNVGDYFV) [compound 2971] | Yes (more dominant epitopes are defined by being recognized by 3 or more donors/different studies)
3023 (SMWALIISV) [compound 3023] | Yes (more dominant epitopes are defined by being recognized by 3 or more donors/different studies)
2956 (VVDKYFDCY) [compound 2956] | Yes (more dominant epitopes are defined by being recognized by 3 or more donors/different studies)
2924 (SPRWYFYYL) [compound 2924] | Yes (more dominant epitopes are defined by being recognized by 3 or more donors/different studies)
2931 (LLLDRLNQL) [compound 2931] | Yes (more dominant epitopes are defined by being recognized by 3 or more donors/different studies)
3053 (LEYHDVRVVL) [compound 3053] | Yes (more dominant epitopes are defined by being recognized by 3 or more donors/different studies)
2946 (VLSEARQHL) [compound 2946] | Yes (more dominant epitopes are defined by being recognized by 3 or more donors/different studies)
3009 (FSAVGNICY) [compound 3009] | Yes (more dominant epitopes are defined by being recognized by 3 or more donors/different studies)
2923 (LSPRWYFYYL) [compound 2923] | Yes (more dominant epitopes are defined by being recognized by 3 or more donors/different studies)
2904 (KLLEQWNLV) [compound 2904] | Yes (more dominant epitopes are defined by being recognized by 3 or more donors/different studies)
2959 (DTDFVNEFY) [compound 2959] | Yes (more dominant epitopes are defined by being recognized by 3 or more donors/different studies)
2980 (ALLADKFPV) [compound 2980] | Yes (more dominant epitopes are defined by being recognized by 3 or more donors/different studies)
3020 (FLLPSLATV) [compound 3020] | Yes (more dominant epitopes are defined by being recognized by 3 or more donors/different studies)
3037 (IPIQASLPF) [compound 3037] | Yes (more dominant epitopes are defined by being recognized by 3 or more donors/different studies)

Same assay, conditions: HLA-A*01:01 epitopes overlapping TTDPSFLGRY; Saini et al.; cited from earlier work

Substance | dominance as reported
HTTDPSFLGRY [nsp3 818-828] | particularly dominant

Same assay, conditions: Habel et al., 14 peptides screened; HLA-A*02:01; cited from earlier work

Substance | IFN-f response
ORF1ab 3183-3191: SARS-CoV-2 ORF1ab 3183-3191 CD8 epitope among 14 peptides screened in the Habel et al. study (FLLNKEMYL; CD8 epitope peptide; UniProt P0DTD1 3183-3191, looked up, fragment) [reference compound] | less prominently recognized

Same assay, conditions: SARS-CoV-2-derived CD8 epitopes; dominant = recognized by 3 or more donors/different studies; cited from earlier work

Substance | Dominant
510 (ATEGALNTPKDHI) [compound 510] | Yes (more dominant epitopes are defined by being recognized by 3 or more donors/different studies)
555 (LPAADLDDF) [compound 555] | Yes (more dominant epitopes are defined by being recognized by 3 or more donors/different studies)
509 (ATEGALNTPK) [compound 509] | Yes (more dominant epitopes are defined by being recognized by 3 or more donors/different studies)
662 (TTDPSFLGRYM) [compound 662] | Yes (more dominant epitopes are defined by being recognized by 3 or more donors/different studies)
520 (LLLDRLNQL) [compound 520] | Yes (more dominant epitopes are defined by being recognized by 3 or more donors/different studies)
584 (FGDDTVIEV) [compound 584] | Yes (more dominant epitopes are defined by being recognized by 3 or more donors/different studies)
660 (HTTDPSFLGRY) [compound 660] | Yes (more dominant epitopes are defined by being recognized by 3 or more donors/different studies)
696 (FADDLNQLTGY) [compound 696] | Yes (more dominant epitopes are defined by being recognized by 3 or more donors/different studies)

Same assay, conditions: SARS-CoV-2 Ag S; T cell type recognizing the epitope; cited from earlier work

Substance | Restriction
1346 (QTNSPRRAR) [compound 1346] | CD8
1418 (RASANLAATK) [compound 1418] | CD8
1300 (KVGGNYNYLY) [compound 1300] | CD8
1436 (FPREGVFV) [compound 1436] | CD8
1455 (SLIDLQEL) [compound 1455] | CD8
1380 (TLADAGFIK) [compound 1380] | CD8
1348 (SPRRARSV) [compound 1348] | CD8
1393 (QIPFAMQMAY) [compound 1393] | CD8
1404 (SVLNDILSRL) [compound 1404] | CD8
1414 (RLQSLQTY) [compound 1414] | CD8

Same assay, conditions: T cell subset (CD4 or CD8) recognizing the SARS-CoV-2-derived epitope; cited from earlier work

Substance | Restriction
565 (TFNGECPNF) [compound 565] | CD8
510 (ATEGALNTPKDHI) [compound 510] | CD8
555 (LPAADLDDF) [compound 555] | CD8
619 (KIAEIPKEEV) [compound 619] | CD8
688 (TEIDPKLDNYY) [compound 688] | CD8
635 (KLMPVCVET) [compound 635] | CD8
509 (ATEGALNTPK) [compound 509] | CD8
662 (TTDPSFLGRYM) [compound 662] | CD8
520 (LLLDRLNQL) [compound 520] | CD8
698 (DVVAIDYKHY) [compound 698] | CD8
675 (LGDVRETMSY) [compound 675] | CD8
584 (FGDDTVIEV) [compound 584] | CD8
589 (ELDERIDKV) [compound 589] | CD8
507 (YGANKDGIIW) [compound 507] | CD8
660 (HTTDPSFLGRY) [compound 660] | CD8
653 (HTQVVDMSMTY) [compound 653] | CD8
545 (TPSGTWLTY) [compound 545] | CD8
631 (KQEILGTVSW) [compound 631] | CD8
554 (KKQQTVTLL) [compound 554] | CD8
649 (ITFDNLKTL) [compound 649] | CD8
696 (FADDLNQLTGY) [compound 696] | CD8
667 (SALNHTKKW) [compound 667] | CD8

Same assay, conditions: T cell type (CD4 or CD8) recognizing the SARS-CoV-2 epitope; cited from earlier work

Substance | Restriction
1059 (YKIEELFYSY) [compound 1059] | CD8
1040 (VVNARLRAK) [compound 1040] | CD8
997 (LRKHFSMMI) [compound 997] | CD8
929 (VPHISRQRL) [compound 929] | CD8
1045 (ILGLPTQTV) [compound 1045] | CD8
1018 (TPHTVLQAV) [compound 1018] | CD8
900 (TYKNTCDGTTF) [compound 900] | CD8
1022 (KPPISFPL) [compound 1022] | CD8
1098 (WRNTNPIQL) [compound 1098] | CD8
915 (GPKVKYLYF) [compound 915] | CD8
1010 (QEYADVFHLY) [compound 1010] | CD8
1076 (KVDGVVQQL) [compound 1076] | CD8
1077 (VVQQLPETY) [compound 1077] | CD8
